From patent US8519188B2, “Compounds which can be used for the treatment of cancers” (Marc-Henry Pitty, priority 2008, dated 2013)

Key:
[1] = tested on: MCF-7 breast cancer cell line; experiment: Cell proliferation (CellTiter 96 AQueous MTS/PMS), MCF-7; type: cell-based; conditions: Homo sapiens, MCF7; MCF-7; 72 hours of incubation; concentration that induces the death of 50% of the cells; read-out: CI50 for various cell lines (nM) MCF-7
Description: (§1) The effects of the compounds of the invention on the proliferation of cancer cells were studied on various human cancer cell lines of various tissue origins (MCF-7: breast cancer, MCF-7/adr adriamycin-resistant breast cancer, ARH-77: myeloma, ARH-77/Dox: doxorubicin (other name for adriamycin)-resistant myeloma, HL-60: acute promyelocytic leukaemia, HL-60/R10: doxorubicin-resistant acute promyelocytic leukaemia). The cancer cells used for this study were incubated at 37° C. in the presence of one of the compounds of the invention added to the culture medium at various concentrations.
(§2) The cancer cell lines originate from the ATCC (American Type Culture Collection) in the case of MCF-7, ARH-77 and HL-60, from Pharmacell (Paris, France) for HL-60/R10, from Oncodesign (Dijon, France) for ARH-77/Dox and from the Pitié Salpetrière Hospital for MCF-7/adr. They were cultivated in a RPMI 1640 medium containing 2 mM L-glutamine and supplemented with 10% foetal calf serum. All the cell lines were maintained in culture at 37° C. in a moist atmosphere containing 5% CO2. Cell proliferation was evaluated using the “CellTiter 96® AQueous” reagent (Promega, Wis., USA) while adhering to the manufacturer's instructions. The cells were seeded in 96-well culture plates in a proportion of from 5,000 to 10,000 cells per well in 200 μl of culture medium. After 24 hours of preincubation at 37° C., the compounds of the invention dissolved in dimethyl sulphoxide (DMSO) were added individually to each of the wells in a proportion of 2 μl per well. After 72 hours of incubation at 37° C. in a moist atmosphere containing 5% CO2, 40 μL of a MTS/PMS ([3-(4,5-dimethylthiazol-2-yl)-5-(3-carboxymethoxyphenyl)-2-(4-sulphophenyl)-2H-tetrazolium phenazine methosulphate) solution were added to each well.

[2] = tested on: MCF-7/adr adriamycin-resistant breast cancer cell line; experiment: Cell proliferation (CellTiter 96 AQueous MTS/PMS), MCF-7/adr; type: cell-based; conditions: Homo sapiens, NCI/ADR-RES; MCF-7/adr; 72 hours of incubation; concentration that induces the death of 50% of the cells; read-out: CI50 for various cell lines (nM) MCF-7/adr
Description: as §1, §2

Structure (SMILES) | IC50 [1] [nM] | IC50 [2] [nM]
O=C(NC1CCCCC1)C(c1cccs1)N(C(=O)CCl)c1cccc(C(F)(F)F)c1 (centres unmarked) [Compound 110, 2-[(2-Chloroacetyl)-(3-trifluoromethylphenyl)amino]-N-cyclo hexyl-2-thiophen-2-yl-acetamide] | 70 | 1
C#CC(=O)N(c1cccc(C(F)(F)F)c1)C(C(=O)Nc1ccccc1OCc1ccccc1)c1cccs1 (centres unmarked) [Compound 112, Propynoic Acid [(2-benzyloxyphenylcarbamoyl)thiophen-2-yl-methyl]-(3-trifluoromethylphenyl)amide] | 200 | 1.8
N#Cc1cccc(N(C(=O)CCl)C(C(=O)NC2CCCCC2)c2cccs2)c1 (centres unmarked) [Compound 121, 2-[(2-Chloroacetyl)-(3-cyanophenyl)amino]-N-cyclohexyl-2-thiophen-2-yl-acetamide] | 252 | 70
N#Cc1ccc(N(C(=O)CCl)C(C(=O)NC2CCCCC2)c2cccs2)cc1 (centres unmarked) [Compound 122, 2-[(2-Chloroacetyl)-(4-cyanophenyl)amino]-N-cyclohexyl-2-thiophen-2-yl-acetamide] | 300 | 4
COc1ccccc1N(C(=O)CCl)C(C(=O)NC1CCCCC1)c1cccs1 (centres unmarked) [Compound 124, 2-[(2-Chloroacetyl)-(2-methoxyphenyl)amino]-N-cyclohexyl-2-thiophen-2-yl-acetamide] | > 2000 | 27
CCN(CC)c1ccc(N(C(=O)CCl)C(C(=O)NC2CCCCC2)c2cccs2)cc1 (centres unmarked) [Compound 127, 2-[(2-Chloroacetyl)-(4-diethylaminophenyl)amino]-N-cyclohexyl-2-thiophen-2-yl-acetamide] | 77 | 7.5
O=C(NC1CCCCC1)C(c1cccs1)N(C(=O)CCl)c1ccc(O)cc1 (centres unmarked) [Compound 128, 2-[(2-Chloroacetyl)-(4-hydroxyphenyl)amino]-N-cyclohexyl-2-thiophen-2-yl-acetamide] | 133 | 86
O=C(NC1CCCCC1)C(c1cccs1)N(C(=O)CCl)c1ccc(C(F)(F)F)cc1 (centres unmarked) [Compound 129, 2-[(2-Chloroacetyl)-(4-trifluoromethylphenyl)amino]-N-cyclohexyl-2-thiophen-2-yl-acetamide] | 77 | 3.6
O=C(CN(C(=O)CCl)c1cccc(C(F)(F)F)c1)NC1CCCCC1 [Compound 130, 2-Chloro-N-cyclohexylcarbamoylmethyl-N-(3-trifluoromethylphenyl)acetamide] | 203 | 34
O=C(NC1CCCCC1)C(c1cccs1)N(C(=O)CCl)c1cccc2ccccc12 (centres unmarked) [Compound 134, 2-[(2-Chloroacetyl)naphthalen-1-yl-amino]-N-cyclohexyl-2-thiophen-2-yl-acetamide] | > 1000 | 74
O=C(NC1CCCCC1)C(c1cccs1)N(C(=O)CCl)c1ccc2c(c1)OCO2 (centres unmarked) [Compound 135, 2-[1,3-Benzodioxol-5-yl-(2-chloroacetyl)amino]-N-cyclo hexyl-2-thiophen-2-yl-acetamide] | 285 | 19
COC(=O)CCNC(=O)C(c1cccs1)N(C(=O)CCl)c1cccc(C(F)(F)F)c1 (centres unmarked) [Compound 139, 3-{2-[(2-Chloroacetyl)-(3-trifluoromethylphenyl)amino]-2-thiophen-2-yl-acetylamino}propionic acid methyl ester] | 468 | 63
CN(C)c1ccc(C(C(=O)NC2CCCCC2)N(C(=O)CCl)c2cccc(C(F)(F)F)c2)cc1 (centres unmarked) [Compound 147] | 92 | 1.1
O=C(NC1CCCCC1)C(c1ccc(N2CCCC2)cc1)N(C(=O)CCl)c1cccc(C(F)(F)F)c1 (centres unmarked) [Compound 150] | 230 | 0.6
COC(=O)c1cccc(NC(=O)C(c2cccs2)N(C(=O)CCl)c2cccc(C(F)(F)F)c2)c1 (centres unmarked) [Compound 153] | 79 | 1.3
COC(=O)c1ccc(NC(=O)C(c2cccs2)N(C(=O)CCl)c2cccc(C(F)(F)F)c2)cc1 (centres unmarked) [Compound 154] | 88 | 3.5
